According to EP4810052A2, “HCRHR2 SELECTIVE POLYPEPTIDES” (Gubra A/S, priority 2023, dated 2026):
Read-outs that look alike come from different tables or passages of the source. Marks after values point to notes of the source that are not given here. Starred links: 1 amine or outer side, 2 acyl side, 3 side chain; linkers in the order of their positions; H or OH if unused. Non-standard residues stand in square brackets, D forms with d. Residues, ends and D or L forms follow the SMILES beside them. Groups on a side chain read outwards from the residue. *: point of attachment. C20 diacid = O=C(O)CCCCCCCCCCCCCCCCCCC(=O)*; γGlu = O=C(O)[C@H](CCC(=O)[*:2])N[*:1]; NMeI = CC[C@H](C)[C@H](NC)C(=O)O; Nle = CCCC[C@H](N)C(=O)O; AEEA = NCCOCCOCC(=O)O; Aib = CC(C)(N)C(=O)O

Columns and labels:
hCRHR2 = target: T1, hCRHR2 (Homo sapiens, UniProt Q13324); assay: HTRF cAMP assay, determination of hCRHR2 potency (peptide libraries 5 conc., purified peptides 11 conc.); assay type: cell-based
T1 sequence (Q13324 1-411): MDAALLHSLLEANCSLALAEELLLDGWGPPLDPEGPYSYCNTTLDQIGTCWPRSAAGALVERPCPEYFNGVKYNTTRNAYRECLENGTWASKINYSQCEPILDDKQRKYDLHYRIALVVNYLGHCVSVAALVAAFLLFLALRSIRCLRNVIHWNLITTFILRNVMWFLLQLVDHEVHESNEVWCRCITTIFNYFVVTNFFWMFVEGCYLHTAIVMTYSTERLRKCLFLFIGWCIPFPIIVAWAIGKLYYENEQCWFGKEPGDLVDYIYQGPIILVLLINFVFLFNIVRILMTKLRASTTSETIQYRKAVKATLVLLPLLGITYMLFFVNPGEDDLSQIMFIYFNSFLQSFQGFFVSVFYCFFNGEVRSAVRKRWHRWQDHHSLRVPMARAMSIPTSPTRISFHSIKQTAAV
Summary of the method: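 Frozen stocks of hCRHR2-expressing CHO-K1 cells, thawed just before testing, received peptide agonists in suspension; cAMP quantified by competitive HTRF immunoassay, with curves fitted by nonlinear regression (variable slope) for EC50.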

hCRHR1 = target: T2, hCRHR1 (Homo sapiens, UniProt P34998); assay: HTRF cAMP assay, determination of hCRHR1 potency (peptide libraries 5 conc., purified peptides 11 conc.); assay type: cell-based
T2 sequence (P34998 24-415): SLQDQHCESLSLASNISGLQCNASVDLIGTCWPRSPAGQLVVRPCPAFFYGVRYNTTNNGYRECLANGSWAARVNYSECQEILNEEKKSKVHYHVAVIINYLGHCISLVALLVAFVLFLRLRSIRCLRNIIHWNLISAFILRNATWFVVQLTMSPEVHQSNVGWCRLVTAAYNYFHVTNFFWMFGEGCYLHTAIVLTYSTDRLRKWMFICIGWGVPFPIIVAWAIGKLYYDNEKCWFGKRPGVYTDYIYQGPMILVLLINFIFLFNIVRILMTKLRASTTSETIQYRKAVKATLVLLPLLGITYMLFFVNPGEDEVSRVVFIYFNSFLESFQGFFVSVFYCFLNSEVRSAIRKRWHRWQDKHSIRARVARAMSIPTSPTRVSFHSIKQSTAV
Summary of the method: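 Cellular cAMP was read by time-resolved FRET between d2-labelled cAMP and cryptate anti-cAMP antibody. The cells were freshly thawed suspension CHO-K1 cells stably expressing human CRHR1.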

[1] = Effect on acute food intake in mice; assay type: in vivo; conditions: single subcutaneous dose
Summary of the method: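 Male NMRI mice (n=7-8 per group) were fasted from six hours before the dark phase. They received a single subcutaneous peptide dose one hour before dark onset. Hourly food intake was monitored for 72 h and expressed as percent reduction versus vehicle, analysed by one-way ANOVA with Dunnett's test.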

PK in rats = assay type: in vivo; design: T½ / MRT: unit not given here; conditions: for half-life: read-out: T½ (converted)
Summary of the method: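 Lean male Sprague Dawley rats (n = 3 per group) got a two-peptide combination at 50 nmol/kg IV and SC. Plasma was sampled from 0.17 to 96 h post dose and analysed by LC-MSMS. PK parameters came from non-compartmental analysis.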

[2] = purified peptides, CHO-K1 cells stably expressing hCRHR2, cAMP HTRF, read-out: hCRHR2 EC50
[3] = purified peptides, CHO-K1 cells stably expressing hCRHR1, cAMP HTRF, read-out: hCRHR1 EC50
[4] = male, Sprague Dawley (RJHan:SD), in vivo, iv, Rat, 50 nmol/kg i.v.
[5] = male, Sprague Dawley (RJHan:SD), in vivo, sc, Rat, 50 nmol/kg s.c.

**Q.** Which results are given for `CC[C@H](C)[C@H](N)C(=O)N[C@H](C(=O)N[C@@H](CC(C)C)C(=O)N[C@@H](CO)C(=O)N[C@@H](CC(C)C)C(=O)N[C@@H](CC(=O)O)C(=O)N[C@H](C(=O)N1CCC[C@H]1C(=O)N[C@H](C(=O)NCC(=O)N[C@@H](CC(C)C)C(=O)N[C@@H](CC(C)C)C(=O)N[C@@H](CCC(N)=O)C(=O)N[C@H](C(=O)N[C@@H](CC(C)C)C(=O)N[C@@H](CC(C)C)C(=O)N[C@@H](CCC(=O)O)C(=O)N[C@@H](CCC(N)=O)C(=O)N[C@@H](C)C(=O)N[C@@H](CCCNC(=N)N)C(=O)N[C@@H](C)C(=O)N[C@@H](CCCNC(=N)N)C(=O)N[C@@H](C)C(=O)N[C@@H](C)C(=O)N[C@@H](CCCNC(=N)N)C(=O)N[C@@H](CCC(=O)O)C(=O)N[C@@H](CCC(N)=O)C(=O)N[C@@H](C)C(=O)N[C@@H](CCCCNC(=O)COCCOCCNC(=O)COCCOCCNC(=O)CC[C@H](NC(=O)CC[C@H](NC(=O)CCCCCCCCCCCCCCCCCCC(=O)O)C(=O)O)C(=O)O)C(=O)N[C@@H](CCC(=O)O)C(=O)N[C@@H](CC(N)=O)C(=O)N[C@@H](C)C(=O)N[C@@H](CCC(=O)O)C(=O)N[C@H](C(=O)N[C@@H](CC(C)C)C(=O)N[C@@H](C)C(=O)N[C@@H](CCC(=O)O)C(=O)N[C@H](C(N)=O)C(C)C)[C@@H](C)CC)[C@@H](C)CC)[C@@H](C)CC)C(C)C)C(C)C` [SEQ ID NO: 17] (H-IVLSLDVPIGLLQILLEQARARAAREQAK([AEEA-AEEA-γGlu-γGlu-C20 diacid])ENAEILAEV-NH2)?
**A.** Selectivity ratio (hCRHR1/ hCRHR2) (hCRHR2; hCRHR1-EC50/hCRHR2-EC50): >2381; EC50 (hCRHR2; [2]): 2.1 nM; EC50 (hCRHR1; [3]): > 5000 nM; % FI compared to vehicle, 24 h post-dosing ([1]; 30 nmol/kg): 78.97* %; % FI compared to vehicle, 24 h post-dosing ([1]; 100 nmol/kg): 48.64*** %; % FI compared to vehicle, 24 h post-dosing ([1]; 300 nmol/kg): 19.52*** %; Solubility pH 7.5, target conc. =10 mg/mL (measured mg/mL) (pH 7.5): 9.2 mg/mL; MRT (PK in rats; Rat): 7.6; T½ (PK in rats; Rat): 7.1

**Q.** Which results are given for `CC[C@H](C)[C@H](NC)C(=O)N[C@H](C(=O)N[C@@H](CC(C)C)C(=O)N[C@@H](CO)C(=O)N[C@@H](CC(C)C)C(=O)N[C@@H](CC(=O)O)C(=O)N[C@H](C(=O)N1CCC[C@H]1C(=O)N[C@H](C(=O)NCC(=O)N[C@@H](CC(C)C)C(=O)N[C@@H](CC(C)C)C(=O)N[C@@H](CCC(N)=O)C(=O)N[C@H](C(=O)N[C@@H](CC(C)C)C(=O)N[C@@H](CC(C)C)C(=O)N[C@@H](CCC(=O)O)C(=O)N[C@@H](CCC(N)=O)C(=O)N[C@@H](C)C(=O)N[C@@H](CCCNC(=N)N)C(=O)N[C@@H](C)C(=O)N[C@@H](CCCNC(=N)N)C(=O)N[C@@H](C)C(=O)N[C@@H](C)C(=O)N[C@@H](CCCNC(=N)N)C(=O)N[C@@H](CCC(=O)O)C(=O)N[C@@H](CCC(N)=O)C(=O)N[C@@H](C)C(=O)N[C@@H](CCCCNC(=O)COCCOCCNC(=O)COCCOCCNC(=O)CC[C@H](NC(=O)CC[C@H](NC(=O)CCCCCCCCCCCCCCCCCCC(=O)O)C(=O)O)C(=O)O)C(=O)N[C@H](C(=O)N[C@@H](CC(N)=O)C(=O)N[C@@H](C)C(=O)N[C@@H](CCC(=O)O)C(=O)N[C@H](C(=O)N[C@@H](CC(C)C)C(=O)N[C@@H](C)C(=O)N[C@@H](CCC(=O)O)C(=O)N[C@H](C(N)=O)C(C)C)[C@@H](C)CC)[C@@H](C)O)[C@@H](C)CC)[C@@H](C)CC)C(C)C)C(C)C` [SEQ ID NO: 5] (H-[NMeI]VLSLDVPIGLLQILLEQARARAAREQAK([AEEA-AEEA-γGlu-γGlu-C20 diacid])TNAEILAEV-NH2)?
**A.** Selectivity ratio (hCRHR1/ hCRHR2) (hCRHR2; hCRHR1-EC50/hCRHR2-EC50): >4167; EC50 (hCRHR2; [2]): 1.2 nM; EC50 (hCRHR1; [3]): > 5000 nM; % FI compared to vehicle, 24 h post-dosing ([1]; 30 nmol/kg): 45.67*** %; % FI compared to vehicle, 24 h post-dosing ([1]; 100 nmol/kg): 18.68*** %; % FI compared to vehicle, 24 h post-dosing ([1]; 300 nmol/kg): 15.93*** %; Solubility pH 7.5, target conc. =10 mg/mL (measured mg/mL) (pH 7.5): 11 mg/mL; MRT (PK in rats; Rat): 7.9; T½ (PK in rats; Rat): 8.6

**Q.** For `CCCC[C@H](NC(=O)[C@@H](NC(=O)[C@H](CCC(=O)O)NC(=O)C(C)(C)NC(=O)[C@H](CC(N)=O)NC(=O)[C@@H](NC(=O)[C@H](CCCCNC(=O)COCCOCCNC(=O)COCCOCCNC(=O)CC[C@H](NC(=O)CC[C@H](NC(=O)CCCCCCCCCCCCCCCCCCC(=O)O)C(=O)O)C(=O)O)NC(=O)[C@H](C)NC(=O)[C@H](CCC(N)=O)NC(=O)[C@H](CCC(=O)O)NC(=O)[C@H](CCCNC(=N)N)NC(=O)[C@H](C)NC(=O)[C@H](C)NC(=O)[C@H](CCCNC(=N)N)NC(=O)[C@H](C)NC(=O)[C@H](CCCNC(=N)N)NC(=O)[C@H](C)NC(=O)[C@H](CCC(N)=O)NC(=O)[C@H](CO)NC(=O)[C@H](CC(C)C)NC(=O)[C@H](CC(C)C)NC(=O)[C@@H](NC(=O)[C@H](CCC(N)=O)NC(=O)[C@H](CC(C)C)NC(=O)[C@H](CC(C)C)NC(=O)CNC(=O)[C@@H](NC(=O)[C@@H]1CCCN1C(=O)[C@@H](NC(=O)[C@H](CC(=O)O)NC(=O)[C@H](CC(C)C)NC(=O)[C@H](CO)NC(=O)[C@H](CC(C)C)NC(=O)[C@@H](NC(=O)[C@@H](NC)[C@@H](C)CC)C(C)C)C(C)C)[C@@H](C)CC)[C@@H](C)CC)[C@@H](C)O)[C@@H](C)CC)C(=O)N[C@@H](C)C(=O)N[C@@H](CCC(=O)O)C(=O)N[C@H](C(N)=O)C(C)C` [SEQ ID NO: 215] (H-[NMeI]VLSLDVPIGLLQILLSQARARAAREQAK([AEEA-AEEA-γGlu-γGlu-C20 diacid])TN[Aib]EI[Nle]AEV-NH2), which EC50 (hCRHR2; Table 4, library peptides having X^38 = Nle, read-out: hCRHR2 pEC50 (converted)) is on record?
**A.** 0.0251 nM

**Q.** And the “Selectivity ratio (hCRHR1/ hCRHR2)” value (hCRHR2; Table 5)?
**A.** >5747

**Q.** What about the EC50 (hCRHR2; Table 5, purified peptides, read-out: hCRHR2 EC50) of the same molecule?
**A.** 0.87 nM

**Q.** And the EC50 (hCRHR1; Table 4, library peptides having X^38 = Nle, read-out: hCRHR1 pEC50 (converted))?
**A.** 3160 nM

**Q.** And the EC50 (hCRHR1; Table 5, purified peptides, read-out: hCRHR1 EC50)?
**A.** > 5000 nM

**Q.** What about the EC50 (hCRHR1; stable cell system, Table 10, read-out: Stable EC50 (nM) hCRHR 1) of the same molecule?
**A.** > 5000 nM

**Q.** And the “% FI compared to vehicle, 24 h post-dosing” value (shortened to “% FI compared to vehicle”) ([1]; 30 nmol/kg)?
**A.** 38.67*** %

**Q.** What about the “% FI compared to vehicle” value ([1]; 100 nmol/kg) of the same molecule?
**A.** 20.26*** %

**Q.** And the “% FI compared to vehicle” value ([1]; 300 nmol/kg)?
**A.** 10.31*** %

**Q.** And the “Solubility pH 6.5 (mg/ml)” value (pH 6.5)?
**A.** 19.6 mg/ml

**Q.** What about the “Solubility pH 7.0 (mg/mL)” value (pH 7) of the same molecule?
**A.** 20.6 mg/mL

**Q.** What about the “Solubility pH 7.5 (mg/mL)” value (pH 7.5) of the same molecule?
**A.** 17.7 mg/mL

**Q.** And the “Solubility pH 7.5 + phenol (mg/mL)” value (pH 7.5)?
**A.** 18.0 mg/mL

**Q.** And the “Solubility pH 7.5, target conc. =10 mg/mL (measured mg/mL)” value (pH 7.5)?
**A.** 12 mg/mL

**Q.** And the MRT (PK in rats; Rat)?
**A.** 6.7

**Q.** And the T½ (PK in rats; Rat)?
**A.** 5.7

**Q.** And the clearance (PK in rats; [4])?
**A.** 0.2 mL/min/kg

**Q.** What about the half-life (PK in rats; [4]) of the same molecule?
**A.** 5.7 h

**Q.** And the Cmax (PK in rats; [5])?
**A.** 42 nM

**Q.** And the Tmax (PK in rats; [5])?
**A.** 24 h

**Q.** What about the half-life (PK in rats; [5]) of the same molecule?
**A.** 6.1 h

**Q.** And the bioavailability (PK in rats; male, Sprague Dawley, rat, in vivo, sc)?
**A.** 28%
